Measured values reported in BigSolDB 2.1.

CCN(CC)C(=S)SSC(=S)N(CC)CC
solubility (mole fraction)
Conditions	in THF	in acetonitrile	in dichloromethane	in ethanol	in ethyl acetate	in isobutanol	in isopropanol	in methanol	in n-butanol	in n-propanol
273.15 K	0.0618	0.0134	0.11	0.000903	0.00709	0.00101	0.000564	0.000896	0.00109	0.00101
278.15 K	0.0719	0.0174	0.118	0.00111	0.0101	0.00119	0.000733	0.00105	0.00155	0.00127
283.15 K	0.0825	0.024	0.13	0.00143	0.0143	0.00146	0.000981	0.00134	0.00216	0.00167
288.15 K	0.0942	0.0313	0.143	0.00192	0.0201	0.00198	0.00133	0.00172	0.0028	0.00229
293.15 K	0.111	0.041	0.159	0.00266	0.0275	0.00263	0.0018	0.00235	0.00375	0.00301
298.15 K	0.131	0.0558	0.175	0.00339	0.0405	0.0035	0.0026	0.00323	0.00518	0.00423
303.15 K	0.152	0.0793	0.202	0.00466	0.0571	0.0052	0.00346	0.0042	0.00715	0.00571
308.15 K	0.173	0.108	0.229	0.0063	0.0809	0.00779	0.0047	0.00541	0.0104	0.00797
313.15 K	0.198	0.141	0.263	0.00911	0.107	0.011	0.00651	0.00736	0.0151	0.0106
318.15 K	0.228	0.184	–	0.0131	0.143	0.0152	0.00964	0.0106	0.0208	0.0155
